Laboratory results as given in patent US12227500B2, “Substituted pyrrolo[2,3-b]pyridines for suppressing toxic endoplasmic reticulum stress” (THE TRUSTEES OF COLUMBIA UNIVERSITY IN THE CITY OF NEW YORK, priority 2018, dated 2025).
Values joined by “and” are separate entries in the source; they are usually repeats but may differ in a detail not shown here. Equal entries are not always repeated. Where two headings read alike, the source gives them in different places.

Experiments:
[1] = system: human ES motor neurons; experiment: Rescue of CPA toxicity by kinase inhibitors in dilution series (FIG. 3); details: for rescue of CPA toxicity: dilution series, FIG. 3
[2] = molecular target: T1, MLK3/MAP3K11 (Homo sapiens, UniProt Q16584); experiment: Radiolabeled ATP kinase assay (Reaction Biology Corp.), MLK3; assay type: biochemical; details: [Cmpd] 0.1 μM; 10 μM ATP
T1 construct: purchased Reaction Biology Corp
T1 sequence (Q16584 whole entry): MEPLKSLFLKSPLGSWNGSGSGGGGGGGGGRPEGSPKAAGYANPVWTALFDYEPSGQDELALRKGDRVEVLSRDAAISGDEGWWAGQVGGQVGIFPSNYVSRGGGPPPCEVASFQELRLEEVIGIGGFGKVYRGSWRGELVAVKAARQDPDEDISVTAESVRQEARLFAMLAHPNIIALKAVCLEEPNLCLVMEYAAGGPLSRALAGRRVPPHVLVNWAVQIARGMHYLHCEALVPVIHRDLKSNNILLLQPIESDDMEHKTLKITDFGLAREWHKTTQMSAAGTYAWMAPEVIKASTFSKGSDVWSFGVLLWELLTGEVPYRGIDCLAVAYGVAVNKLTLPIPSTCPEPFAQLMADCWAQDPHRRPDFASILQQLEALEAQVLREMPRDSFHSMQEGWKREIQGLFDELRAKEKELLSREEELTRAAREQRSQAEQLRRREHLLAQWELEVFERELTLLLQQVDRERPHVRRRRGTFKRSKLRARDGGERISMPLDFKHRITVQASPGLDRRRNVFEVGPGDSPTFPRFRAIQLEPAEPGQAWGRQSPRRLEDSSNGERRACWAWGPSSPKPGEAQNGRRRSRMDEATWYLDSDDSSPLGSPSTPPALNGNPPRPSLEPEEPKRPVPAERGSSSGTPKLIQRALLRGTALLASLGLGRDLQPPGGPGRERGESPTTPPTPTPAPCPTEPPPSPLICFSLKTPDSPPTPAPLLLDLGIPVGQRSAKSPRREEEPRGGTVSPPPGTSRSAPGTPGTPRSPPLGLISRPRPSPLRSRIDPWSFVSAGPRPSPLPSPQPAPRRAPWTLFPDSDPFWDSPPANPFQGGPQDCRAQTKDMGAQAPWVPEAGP
Protocol: (§1) Meanwhile, the same analogs were analyzed in a radiolabeled ATP assay (10 μM ATP; Reaction Biology Corp.) to compare the extent to which they could inhibit the activity of HGK, MLK1, or MLK3 in a cell-free environment (Table S3 and S4).

[3] = molecular target: HGK/MAP4K4 (Homo sapiens, UniProt O95819); experiment: Radiolabeled ATP kinase assay (Reaction Biology Corp.), HGK; assay type: biochemical; parameters: purchased Reaction Biology Corp; details: 10 μM ATP, read-out: % Enzyme Activity (relative to DMSO controls), HGK/MAP4K4, Data 1; for remaining activity at 0.025 µM: [Cmpd] 0.025 μM; for remaining activity at 0.1 µM: [Cmpd] 0.1 μM
HGK/MAP4K4, sequence (O95819 whole entry): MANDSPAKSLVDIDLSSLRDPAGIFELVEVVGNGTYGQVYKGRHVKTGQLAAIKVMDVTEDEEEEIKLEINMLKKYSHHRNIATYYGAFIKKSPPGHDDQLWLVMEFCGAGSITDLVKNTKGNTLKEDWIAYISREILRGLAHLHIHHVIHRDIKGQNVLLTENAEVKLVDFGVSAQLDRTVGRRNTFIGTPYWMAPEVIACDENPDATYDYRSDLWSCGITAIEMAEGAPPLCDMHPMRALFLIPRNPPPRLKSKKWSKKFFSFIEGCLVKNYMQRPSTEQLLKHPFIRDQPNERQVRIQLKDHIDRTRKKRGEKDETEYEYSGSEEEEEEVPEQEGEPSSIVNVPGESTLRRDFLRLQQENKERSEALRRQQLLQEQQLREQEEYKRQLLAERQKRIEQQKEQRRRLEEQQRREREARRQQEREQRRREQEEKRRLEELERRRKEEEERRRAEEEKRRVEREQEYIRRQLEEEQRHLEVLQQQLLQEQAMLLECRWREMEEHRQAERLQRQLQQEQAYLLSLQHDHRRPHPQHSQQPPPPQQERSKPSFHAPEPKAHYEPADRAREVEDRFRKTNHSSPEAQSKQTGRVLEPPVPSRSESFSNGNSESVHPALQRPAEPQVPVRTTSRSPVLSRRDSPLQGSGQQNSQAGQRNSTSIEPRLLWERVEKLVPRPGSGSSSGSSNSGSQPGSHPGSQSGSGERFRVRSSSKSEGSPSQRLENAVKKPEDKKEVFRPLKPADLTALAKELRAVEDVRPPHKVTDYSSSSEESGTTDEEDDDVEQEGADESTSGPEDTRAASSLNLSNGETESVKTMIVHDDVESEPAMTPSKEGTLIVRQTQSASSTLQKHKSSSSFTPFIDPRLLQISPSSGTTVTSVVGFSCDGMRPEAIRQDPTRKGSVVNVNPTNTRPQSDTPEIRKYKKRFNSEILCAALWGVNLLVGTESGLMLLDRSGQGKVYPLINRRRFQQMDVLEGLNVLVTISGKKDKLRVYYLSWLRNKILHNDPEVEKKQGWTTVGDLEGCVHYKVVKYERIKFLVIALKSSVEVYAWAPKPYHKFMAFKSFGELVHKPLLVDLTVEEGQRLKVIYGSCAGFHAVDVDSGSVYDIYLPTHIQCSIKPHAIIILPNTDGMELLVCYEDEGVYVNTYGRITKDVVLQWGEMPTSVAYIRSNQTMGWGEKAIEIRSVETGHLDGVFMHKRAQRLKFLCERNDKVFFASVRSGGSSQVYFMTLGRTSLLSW
Protocol: as §1

[4] = system: human ES motor neurons carrying the ALS-causing SOD1^A4V mutation; experiment: cells; assay type: cell-based; details: for EC50 / viability at 1 µM / Emax: 72 h; for viability at 1 µM: CPA (33 μM) + compound (1 μM), read-out: Motor Neuron Survival, % untreated; for Emax: read-out: Emax (MN survival % untreated)
Protocol: Next, survival assays were performed with all the analogs at once to generate a low-variability dataset. All compounds were evaluated at concentrations ranging from 0.1-3.0 μM (five-point dilution) in three technical replicates and two biological replicates.

[5] = molecular target: T2, MLK1/MAP3K9 (Homo sapiens, UniProt P80192); experiment: Radiolabeled ATP kinase assay (Reaction Biology Corp.), MLK1; assay type: biochemical; details: [Cmpd] 0.1 μM, 10 μM ATP
T2 construct: purchased Reaction Biology Corp
T2 sequence (P80192 whole entry): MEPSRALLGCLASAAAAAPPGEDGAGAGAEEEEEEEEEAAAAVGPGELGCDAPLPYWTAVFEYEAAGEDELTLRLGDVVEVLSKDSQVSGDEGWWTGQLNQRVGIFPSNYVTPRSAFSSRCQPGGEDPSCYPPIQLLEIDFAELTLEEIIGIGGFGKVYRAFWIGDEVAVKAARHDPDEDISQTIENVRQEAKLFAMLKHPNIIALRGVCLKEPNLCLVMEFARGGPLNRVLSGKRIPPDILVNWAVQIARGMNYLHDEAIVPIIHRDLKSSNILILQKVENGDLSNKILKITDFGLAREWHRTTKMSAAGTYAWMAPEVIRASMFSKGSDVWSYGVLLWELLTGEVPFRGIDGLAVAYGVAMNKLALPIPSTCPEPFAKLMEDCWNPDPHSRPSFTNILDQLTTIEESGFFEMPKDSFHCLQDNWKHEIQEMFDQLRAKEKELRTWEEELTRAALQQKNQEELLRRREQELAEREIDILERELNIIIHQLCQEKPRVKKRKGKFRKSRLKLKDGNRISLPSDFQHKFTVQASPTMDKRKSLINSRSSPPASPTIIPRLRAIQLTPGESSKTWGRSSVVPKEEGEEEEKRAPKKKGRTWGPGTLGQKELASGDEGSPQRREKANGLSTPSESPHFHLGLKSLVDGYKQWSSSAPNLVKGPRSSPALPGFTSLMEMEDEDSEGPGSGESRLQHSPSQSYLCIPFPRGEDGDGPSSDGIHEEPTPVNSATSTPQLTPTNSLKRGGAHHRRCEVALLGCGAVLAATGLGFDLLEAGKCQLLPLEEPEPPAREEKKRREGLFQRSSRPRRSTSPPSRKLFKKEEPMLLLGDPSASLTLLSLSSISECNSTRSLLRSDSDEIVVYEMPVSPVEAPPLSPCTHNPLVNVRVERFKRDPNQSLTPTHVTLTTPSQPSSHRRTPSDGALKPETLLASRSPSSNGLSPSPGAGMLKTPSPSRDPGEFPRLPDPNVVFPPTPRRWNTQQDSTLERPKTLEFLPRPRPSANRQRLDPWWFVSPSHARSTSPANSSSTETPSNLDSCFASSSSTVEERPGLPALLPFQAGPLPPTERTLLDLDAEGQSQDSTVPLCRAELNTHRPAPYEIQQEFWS
Protocol: as §1

[6] = in vitro; details: CD-1, mouse, liver microsomes, pH 7.4
[7] = Plasma and brain concentration 30 min after IP injection; assay type: in vivo, mouse; details: mice, ip dosing; for Kp at 30 min / concentration at 30 min: male, C57BL6/J, mouse; for Kp at 30 min: brain/plasma, read-out: B/P
Protocol: All studies were performed on 6-week old male C57BL6/J mice that were housed in the Columbia University Medical Center facility in a 12h light/dark cycle with access to food and water ad libitum. All animal procedures were approved by the Columbia University IACUC. […] Animals were weighed and injected once intraperitoneally (IP) at the indicated dose (10 or 20 mg/kg). After 30 min, animals were deeply anesthetized with 2.5% Avertin. Whole blood was collected by cardiac puncture in tubes containing 0.5M EDTA as an anticoagulant, and centrifuged for 10 min at 845 rcf at 4° to isolate plasma. Following cardiac puncture, animals were decapitated and brains were dissected and weighed. Brain samples were homogenized with a glass dounce homogenizer in 5 volumes of ddH2O. Brain and plasma samples were snap frozen in liquid nitrogen and stored at −80° C. before further processing.
The plasma samples were transferred to Eppendorf tubes (50 μL per sample) and diluted with acetonitrile (200 μL). The samples were sonicated for 1 minute followed by centrifugation at 16,000 rpm for 10 minutes. The supernatant was transferred to another Eppendorf tube and the solvent evaporated overnight. The samples were reconstituted in a mixture of 40 μL acetonitrile and 10 μL water transferred to a sample vial with insert, and analyzed by LC-MS.
The homogenized brain samples (250 μL) were transferred to Eppendorf tubes and diluted with acetonitrile (750 μL). The samples were sonicated for 1 minute followed by centrifugation at 16,000 rpm for 10 minutes. The supernatant (900 μL) was transferred to another Eppendorf tube and the solvent evaporated overnight. The samples were reconstituted in a mixture of 80 μL acetonitrile and 20 μL water, transferred to a sample vial with insert, and analyzed by LC-MS.
LC-MS analysis was performed on a platform comprising a Thermo Scientific Dionex Ultimate 3000 and a Bruker amaZon SL equipped with an electrospray ionization source controlled by Bruker Hystar 3.2. The compound concentration in each plasma sample was determined using a calibration curve. Chromatographic separation was performed by injecting 10 μL of the sample onto an Agilent Eclipse Plus C18 column (2.1×50 mm, 3.5 μm) maintained at 20° C. The flow rate was maintained at 400 μL/min. The initial flow conditions were 60% solvent A (water containing 0.1% acetic acid) and 40% solvent B (methanol containing 0.1% acetic acid). Solvent B was raised to 60% over 0.25 minutes and to 70% by 6.75 minutes.

[8] = system: human stem cell-derived motor neurons derived from a healthy patient; experiment: CPA survival assay, wild-type human stem cell-derived motor neurons; details: 8-point dilution series
[9] = system: ESC-derived spinal motor neurons and interneurons; experiment: Toxicity of ER stressors in mouse ESC-derived spinal neuron cultures; assay type: cell-based; details: co-cultures, increasing concentrations
Description: One of the selective stressors that we identified was cyclopiazonic acid (CPA), a mycotoxin that reversibly blocks the sarcoendoplasmic reticulum-associated calcium ATPse (SERCA). SERCA is responsible for sequestering calcium from the cytoplasm into the endoplasmic reticulum (ER) (Goeger et al. 1988). SERCA inhibition lowers calcium concentration in the ER, leading to dysfunction of protein folding, activation of the unfolded protein response, ER stress, and apoptosis (Doutheil et al. 1997). […]. For all subsequent experiments, unless stated otherwise, motor neurons were treated with 7.5 μM CPA.
[…]. […] […].
For this analysis, we generated a new ESC line that expresses tdTomato in dI4 and dIL dorsal spinal inhibitory interneurons derived from Ptf1α-expressing progenitors (Hoang et al. 2017, unpublished data). We differentiated this line under conditions that promote the specification of dorsal interneuron identity. FACS-purified tdTomato-expressing interneurons were co-cultured with FACS-purified GFP-expressing spinal motor neurons (FIG. 16E and FIG. 16G).
To strengthen the link between the activation of ER stress and motor neuron degeneration, we extended our study to include two additional compounds that activate ER stress: thapsigargin, a drug that acts similarly to CPA by inhibiting SERCA pumps, but is irreversible (Lytton et al. 1991), and tunicamycin, a drug that triggers ER stress in a calcium-independent manner by inhibiting protein N-glycosylation in the ER (Oslowski et al. 2011). […] Thus, the motor neuron-toxic effects of CPA are likely related to its activation of ER stress pathways and not to its effects on calcium levels or other off-target effects (FIG. 16G).

[10] = Homo sapiens, Neuron, CPA 33 μM, read-out: EC50
[11] = Homo sapiens, Neuron, CPA 33 μM
[12] = read-out: % Enzyme Activity Remaining (relative to DMSO controls), MLK1/MAP3K9, Data 1
[13] = read-out: % Enzyme Activity Remaining (relative to DMSO controls), MLK1/MAP3K9, Data 2

CCSCc1ccc2c(c1)c1c3c(c4c5cc(CSCC)ccc5n5c4c1n2[C@H]1C[C@](O)(C(=O)OC)[C@]5(C)O1)CNC3=O [CEP1347]
rescue of CPA toxicity [1]: dose-dependent rescue of CPA toxicity

CN1CCN(Cc2ccc(-c3cnc4[nH]cc(-c5cccc6[nH]ncc56)c4c3)cc2)CC1 [Compound 7aa, 4-(5-(4-((4-Methylpiperazin-1-yl)methyl)phenyl)-1H-pyrrolo[2,3-b]pyridin-3-yl)-1H-indazole]
% Enzyme Activity Remaining (relative to DMSO controls), MLK3/MAP3K11, Data 1 [2]: 31.88% | % Enzyme Activity Remaining (relative to DMSO controls), MLK3/MAP3K11, Data 2 [2]: 31.78% | remaining activity at 0.025 µM [3]: 2.75% | remaining activity at 0.1 µM [3]: -1.36% | EC50 [4, 10]: 208 nM | viability at 1 µM ([4]; Homo sapiens, Neuron): 112% | Emax [4, 11]: 134% | remaining activity at 0.1 µM [5, 12]: 52.9% | remaining activity at 0.1 µM [5, 13]: 51.7% | half-life at 20 μM [6]: 9 min

CC(=O)c1ccc(-c2c[nH]c3ncc(-c4ccc(CN5CCN(C)CC5)cc4)cc23)cc1 [Compound 7x, 1-(4-(5-(4-((4-Methylpiperazin-1-yl)methyl)phenyl)-1H-pyrrolo[2,3-b]pyridin-3-yl)phenyl)ethan-1-one]
% Enzyme Activity Remaining (relative to DMSO controls), MLK3/MAP3K11, Data 1 [2]: 67.84% | % Enzyme Activity Remaining (relative to DMSO controls), MLK3/MAP3K11, Data 2 [2]: 65.08% | remaining activity at 0.025 µM [3]: 30.8% | remaining activity at 0.1 µM [3]: 7.1% | EC50 [4, 10]: 322 nM | viability at 1 µM ([4]; Homo sapiens, Neuron): 78.1% | Emax [4, 11]: 78.1% | remaining activity at 0.1 µM [5, 12]: 65.8% | remaining activity at 0.1 µM [5, 13]: 67.7%

CN1CCN(Cc2ccc(-c3cnc4[nH]cc(-c5cccc(F)c5)c4c3)cc2)CC1 [Compound 7y, 3-(3-Fluorophenyl)-5-(4-((4-methylpiperazin-1-yl)methyl)phenyl)-1H-pyrrolo[2,3-b]pyridine]
% Enzyme Activity Remaining (relative to DMSO controls), MLK3/MAP3K11, Data 1 [2]: 40.75% | % Enzyme Activity Remaining (relative to DMSO controls), MLK3/MAP3K11, Data 2 [2]: 43.09% | remaining activity at 0.025 µM [3]: 7.85% | remaining activity at 0.1 µM [3]: 1.53% | EC50 [4, 10]: 433 nM | viability at 1 µM ([4]; Homo sapiens, Neuron): 86.4% | Emax [4, 11]: 104% | remaining activity at 0.1 µM [5, 12]: 57.1% | remaining activity at 0.1 µM [5, 13]: 58.1% | half-life at 20 μM [6]: > 30 min

CN1CCN(Cc2ccc(-c3cnc4[nH]cc(-c5ccc(OC(F)(F)F)cc5)c4c3)cc2)CC1 [Compound 7z, 5-(4-((4-Methylpiperazin-1-yl)methyl)phenyl)-3-(4-(trifluoromethoxy)phenyl)-1H-pyrrolo[2,3-b]pyridine]
% Enzyme Activity Remaining (relative to DMSO controls), MLK3/MAP3K11, Data 1 [2]: 93.59% | % Enzyme Activity Remaining (relative to DMSO controls), MLK3/MAP3K11, Data 2 [2]: 94.16% | remaining activity at 0.025 µM [3]: 96.4% | remaining activity at 0.1 µM [3]: 67.9% | EC50 ([4]; CPA 33 μM): Ambiguous | viability at 1 µM ([4]; Homo sapiens, Neuron): 11.2% | Emax [4, 11]: 12.8% | remaining activity at 0.1 µM [5, 12]: 98.6% | remaining activity at 0.1 µM [5, 13]: 99.2%

CN1CC2CCC(C1)N2Cc1ccc(-c2cnc3[nH]cc(-c4cccc(Cl)c4)c3c2)cc1 [Compound 12f, 3-(3-Chlorophenyl)-5-(4-((3-methyl-3,8-diazabicyclo[3.2.1]octan-8-yl)methyl)phenyl)-1H-pyrrolo[2,3-b]pyridine]
concentration giving complete rescue from CPA ([4]; CPA 33 μM): 0.3 µM | EC50 [4, 10]: 110 nM | Emax [4, 11]: 116% | half-life at 20 μM [6]: 158 min

O[C@@H]1CCN(Cc2ccc(-c3cnc4[nH]cc(-c5cccc(F)c5)c4c3)cc2)C1 [Compound 12i, (R)-1-(4-(3-(3-Fluorophenyl)-1H-pyrrolo[2,3-b]pyridin-5-yl)benzyl)pyrrolidin-3-ol]
EC50 [4, 10]: 50 nM | Emax [4, 11]: 115% | Kp at 30 min ([7]; 10 mg/kg): 3.7 | Kp at 30 min ([7]; 20 mg/kg): 2.8 | concentration at 30 min ([7]; 10 mg/kg, read-out: brain): 2240 ng/g and 5.78 µM | concentration at 30 min ([7]; 10 mg/kg, read-out: plasma): < 600 ng/mL and < 1.55 µM | concentration at 30 min ([7]; 20 mg/kg, read-out: brain): 9780 ng/g and 25.2 µM | concentration at 30 min ([7]; 20 mg/kg, read-out: plasma): 3490 ng/mL and 9 µM

O[C@@H]1CCN(Cc2ccc(-c3cnc4[nH]cc(-c5cccc(Cl)c5)c4c3)cc2)C1 [Compound 12l, (R)-1-(4-(3-(3-Chlorophenyl)-1H-pyrrolo[2,3-b]pyridin-5-yl)benzyl)pyrrolidin-3-ol]
EC50 [4, 10]: 90 nM | Emax [4, 11]: 115% | Kp at 30 min ([7]; 10 mg/kg): 1.7 | concentration at 30 min ([7]; 10 mg/kg, read-out: brain): < 1000 ng/g and > 2.48 µM | concentration at 30 min ([7]; 10 mg/kg, read-out: plasma): < 600 ng/mL and < 1.49 µM | toxicity at this concentration ([7]; 20 mg/kg): ^cCompound was toxic at this concentration

CCN(CC)C(=O)c1ccc(Nc2nc(OCC3CCCCC3)c3[nH]cnc3n2)cc1 [NU6140]
rescue of CPA toxicity [1]: dose-dependent rescue of CPA toxicity

Cn1cc(/C=C2\C(=O)Nc3ccc(S(N)(=O)=O)cc32)c2ccccc21 [Syk inhibitor]
rescue of CPA toxicity [1]: dose-dependent rescue of CPA toxicity

CCC(=O)Nc1cccc(Oc2nc(Nc3ccc(N4CCN(C)CC4)cc3OC)ncc2Cl)c1 [WZ4003]
concentration that potentiated CPA-induced neurodegeneration and was toxic without CPA [1]: ≥ 1000 nM | rescue of CPA toxicity [1]: unable to rescue CPA toxicity | rescue of CPA toxicity [8]: unable to rescue CPA toxicity

C/C=C(/C)C(=O)O[C@H]1C(C)=C2[C@H]([C@@H]1OC(=O)CCCCCCC)[C@@](C)(OC(C)=O)C[C@H](OC(=O)CCC)[C@@]1(O)[C@H]2OC(=O)[C@@]1(C)O [thapsigargin]
sensitivity of spinal motor neurons vs dorsal interneurons [9]: selectively sensitive

JAK3 inhibitor IV
rescue of CPA toxicity [1]: dose-dependent rescue of CPA toxicity

tunicamycin
sensitivity of spinal motor neurons vs dorsal interneurons [9]: selectively sensitive
